Where two headings read alike, the source gives them in different places.
Assays:
[1] = tested on: Sprague-Dawley or Wistar rats; settings: fasted rat, cited from earlier work; for ED50: 2 h
[2] = tested on: Zucker Diabetic Fatty rats; assay: Acute combination treatment of an insulin secretagogue and Compound J in the ZDF rat (Example X); assay type: in vivo
Method: Experimental Protocol: Zucker Diabetic Fatty rats (9.5 weeks of age) were fasted for 5 hours starting at 8 am. The animals were then divided into 4 treatments groups with statistically similar baseline blood glucose levels. Test compounds were administered by oral gavage. The treatments were as shown below:
One hour after saline or drug administration, all animals received a simulated meal in the form of an oral bolus of glucose (1 g/kg). Blood glucose was then monitored at regular time intervals for 3 hours. Test compounds were prepared as suspensions in 0.1% carboxymethylcellulose. Blood samples were obtained by nicking of a tail vein. Blood glucose was measured by means of a HemoCue glucose analyzer according to the manufacturer's instructions (HemoCue Inc., Mission Viejo, Calif.). Results are expressed as the mean ± standard error of the mean for all values.

ZDF rats = assay: Chronic combination treatment of an insulin secretagogue and an FBPase inhibitor in the ZDF rat (Example Y); assay type: in vivo; settings: maximal doses, 2 to 12 weeks
Text: Male ZDF rats are purchased at 7 weeks of age from Genetics Models Inc. (Indianapolis, Ind.). […] At 8 weeks of age, animals are divided into 4 treatment groups (n=8/group). The treatments are control, Compound J, glyburide, and the combination of Compound J and glyburide. […] Other parameters measured by standard assays include: lactate, glycerol, alanine, triglycerides, free fatty acids, ketone bodies, hepatic and muscle glycogen, cholesterol, VLDL, HDL, hemoglobin Alc, body weight, food and water intake, as well as other measures of carbohydrate, lipid, and protein metabolism. […] Differences between groups are evaluated ANOVA using an appropriate post hoc test. Results are considered significant with p<0.05.

C57BL/KsJ db/db mice [3] = assay: Acute combination treatment of insulin and Compound G in db/db mice (Example Z); assay type: in vivo, mouse
Method: Male C57BL/KsJ db/db mice were purchased at 5 weeks of age from Clea Japan, Inc. (Tokyo, Japan). The mice were maintained under standard vivarium conditions (24-26° C., 12-hour light cycle, 12-hour dark cycle) and received standard chow and water ad libitum. At 20 weeks of age, animals were divided into 4 groups (n=6/group). The treatment groups were control, compound G, insulin, and the combination of compound G and insulin. […] Insulin (human recombinant insulin, Penfill R300, Novo Nordisk, Denmark) was injected subcutaneously at a dose of 1.5 U/kg. Food was removed after treatment. Blood glucose levels in tail vein samples were measured by means of a Glucoloader-F, an automatic glucose analyzer, (A&T Co., Ltd., Tokyo, Japan).

C57BL/KsJ db/db mice [4] = assay: Chronic combination treatment of insulin and Compound G in db/db mice (Example AA); assay type: in vivo, mouse
Method: Male C57BL/KsJ db/db mice were purchased at 5 weeks of age from Clea Japan, Inc. (Tokyo, Japan). The mice were maintained under standard vivarium conditions (24-26° C., 12-hour light cycle, 12-hour dark cycle) and received standard chow and water ad libitum. At 16 weeks of age, animals were divided into 2 groups (n=5 or 9-10/group). Both groups were subcutaneously injected with human recombinant insulin (Penfill N300, Novo Nordisk, Denmark) on a daily basis to adjust plasma glucose levels to the target range of 250 to 300 mg/dL.

C57BL/KsJ db/db mice [5] = assay: Chronic combination treatment of insulin and Compound J in db/db mice (Example BB); assay type: in vivo, mouse
Method: Male C57BL/KsJ db/db mice were purchased at 5 weeks of age from Clea Japan, Inc. (Tokyo, Japan). […] At 19 weeks of age, animals were divided into 2 groups (n=6/group). […] Blood glucose levels in tail vein samples were measured by means of a Glucoloader-F, an automatic glucose analyzer, (A&T Co., Ltd., Tokyo, Japan).

Goto-Kakizaki (GK) rats = assay: Acute combination treatment of insulin and an FBPase inhibitor in the Goto-Kakizaki rat (Example CC); assay type: in vivo
Method: Male Goto-Kakizaki (GK) rats were purchased at 9 weeks of age from Charles River Japan, Inc. (Tokyo, Japan). The rats were maintained under standard vivarium conditions (24-26° C., 12-hour light cycle, 12-hour dark cycle) and received standard chow and water ad libitum. At 48 weeks of age, animals were divided into 4 groups (n=6/group) after an overnight fast. The treatment groups were control, Compound J, insulin, and combination of Compound J and insulin. […] Insulin (human recombinant insulin, Penfill N300, Novo Nordisk, Denmark) was subcutaneously injected at the dose of 1.5 U/kg. Blood glucose levels in tail vein samples were measured by means of a Glucoloader-F, an automatic glucose analyzer, (A&T Co., Ltd., Tokyo, Japan).

Molecule: CCC1=C(C)CN(C(=O)NCCc2ccc(S(=O)(=O)NC(=O)N[C@H]3CC[C@H](C)CC3)cc2)C1=O [Glimepiride]
- ED50 [1]: 0.182 (2 h) mg/kg
- Gluc low,% ([1]; Dose 0.1): −18%

Molecule: COc1ccc(Cl)cc1C(=O)NCCc1ccc(S(=O)(=O)NC(=O)NC2CCCCC2)cc1 [Glyburide, glyburide, reference compound]
- blood glucose after oral glucose load (FIG. 1) ([2]; glyburide 100 mg/kg, Compound J 300 mg/kg p.o.): suppressed the rise in blood glucose levels
- AUC glucose ([2]; initial 4 hours post drug, glyburide 100 mg/kg, Compound J 300 mg/kg p.o., oral glucose 1 g/kg): 1324 ± 132 mg·h/dL
- maximally efficacious dose ([2]; pilot studies, ZDF rat): 100 mg/kg
- glycemic control (ZDF rats): becomes less and less effective over time
- ED50 [1]: 0.255 (2 h) mg/kg
- Gluc low,% ([1]; Dose 0.3): −25%

Molecule: Insulin: human recombinant insulin, Penfill R300 (Example Z) or Penfill N300 (Examples AA, BB, CC), Novo Nordisk
- Plasma Glucose, % of pretreatment values (C57BL/KsJ db/db mice [3]; after 1 hour): (54.2 +/− 4.1) %
- Plasma Glucose (C57BL/KsJ db/db mice [3]; after 1 hour, Compound G 200 mg/kg p.o., insulin 1.5 U/kg s.c.): 410.8 ± 34.4 mg/dL
- Plasma Glucose (C57BL/KsJ db/db mice [3]; after 4 hours): 540.3 ± 35.9 mg/dL
- Plasma Glucose, % of pretreatment values (C57BL/KsJ db/db mice [3]; after 4 hours): (71.4 +/− 4.1) %
- Plasma Glucose (C57BL/KsJ db/db mice [3]; after […]): 463.2 ± 40.2 mg/dL
- Plasma Glucose, % of pretreatment values (C57BL/KsJ db/db mice [3]; after […]): (61.1 +/− 4.9) %
- Plasma Glucose (C57BL/KsJ db/db mice [3]; before (0 hour)): 756.2 ± 15.2 mg/dL
- Plasma Glucose, % of pretreatment values (C57BL/KsJ db/db mice [3]; before (0 hour)): (100.0 +/− 0.0) %
- plasma glucose lowering (C57BL/KsJ db/db mice [3]; db/db mice, acute): improved hyperglycemia within 2.5 hours
- Body Weight (C57BL/KsJ db/db mice [4]; after 1 week): 50.7 ± 1.5 g
- Insulin Dose required to adjust plasma glucose to 250-300 mg/dL (C57BL/KsJ db/db mice [4]; after 1 week): 753 +/− 72 U/kg
- Plasma Glucose (C57BL/KsJ db/db mice [4]; after 1 week, insulin adjusted daily, Compound G 0.2% food admixture): 297.1 ± 46.0 mg/dL
- Body Weight (C57BL/KsJ db/db mice [4]; after 2 weeks): 54.3 ± 1.2 g
- Insulin Dose required to adjust plasma glucose to 250-300 mg/dL (C57BL/KsJ db/db mice [4]; after 2 weeks): 492 +/− 68 U/kg
- Plasma Glucose (C57BL/KsJ db/db mice [4]; after 2 weeks): 375.6 ± 53.5 mg/dL
- Body Weight (C57BL/KsJ db/db mice [4]; after 3 weeks): 57.4 ± 1.6 g
- Insulin Dose required to adjust plasma glucose to 250-300 mg/dL (C57BL/KsJ db/db mice [4]; after 3 weeks): 306 +/− 67 U/kg
- Plasma Glucose (C57BL/KsJ db/db mice [4]; after 3 weeks): 282.4 ± 43.1 mg/dL
- Body Weight (C57BL/KsJ db/db mice [4]; before (0 week)): 43.4 ± 2.2 g
- Insulin Dose required to adjust plasma glucose to 250-300 mg/dL (C57BL/KsJ db/db mice [4]; before (0 week)): 548 +/− 18 U/kg
- Plasma Glucose (C57BL/KsJ db/db mice [4]; before (0 week)): 736.5 ± 17.0 mg/dL
- body weight increase (C57BL/KsJ db/db mice [4]; db/db mice, 3 weeks): increased body weight remarkably
- Body Weight (C57BL/KsJ db/db mice [5]; after 1 week): 57.9 ± 1.3 g
- Insulin Dose required to achieve target blood glucose levels (C57BL/KsJ db/db mice [5]; after 1 week): 495 +/− 32 U/kg
- Plasma Glucose (C57BL/KsJ db/db mice [5]; after 1 week, insulin adjusted daily, Compound J 0.2% food admixture): 408.8 ± 15.3 mg/dL
- Body Weight (C57BL/KsJ db/db mice [5]; after 2 weeks): 59.7 ± 1.3 g
- Insulin Dose required to achieve target blood glucose levels (C57BL/KsJ db/db mice [5]; after 2 weeks): 699 +/− 63 U/kg
- Plasma Glucose (C57BL/KsJ db/db mice [5]; after 2 weeks): 447.7 ± 17.6 mg/dL
- Body Weight (C57BL/KsJ db/db mice [5]; after 3 weeks): 61.4 ± 1.2 g
- Insulin Dose required to achieve target blood glucose levels (C57BL/KsJ db/db mice [5]; after 3 weeks): 760 +/− 95 U/kg
- Plasma Glucose (C57BL/KsJ db/db mice [5]; after 3 weeks): 396.3 ± 39.3 mg/dL
- Body Weight (C57BL/KsJ db/db mice [5]; after 4 weeks): 64.2 ± 1.0 g
- Insulin Dose required to achieve target blood glucose levels (C57BL/KsJ db/db mice [5]; after 4 weeks): 802 +/− 129 U/kg
- Plasma Glucose (C57BL/KsJ db/db mice [5]; after 4 weeks): 316.7 ± 17.2 mg/dL
- Body Weight (C57BL/KsJ db/db mice [5]; before (0 week)): 54.9 ± 1.4 g
- Insulin Dose required to achieve target blood glucose levels (C57BL/KsJ db/db mice [5]; before (0 week)): 0 +/− 0 U/kg
- Plasma Glucose (C57BL/KsJ db/db mice [5]; before (0 week)): 617.2 ± 28.1 mg/dL
- body weight gain (C57BL/KsJ db/db mice [5]; db/db mice, 4 weeks of treatment): resulted in an increase in body weight
- plasma glucose lowering (Goto-Kakizaki (GK) rats; GK rats, acute): decreased plasma glucose within 2 hours
- Plasma Glucose, % of before (Goto-Kakizaki (GK) rats; after 2 hour): (55.0 +/− 11.0) %
- Plasma Glucose (Goto-Kakizaki (GK) rats; after 2 hour, Compound J 50 mg/kg p.o., insulin 1.5 U/kg s.c.): 88.8 ± 16.8 mg/dL
- Plasma Glucose (Goto-Kakizaki (GK) rats; after 4 hours): 71.3 ± 20.9 mg/dL
- Plasma Glucose, % of before (Goto-Kakizaki (GK) rats; after 4 hours): (43.9 +/− 13.3) %
- Plasma Glucose (Goto-Kakizaki (GK) rats; after 6 hours): 90.7 ± 19.7 mg/dL
- Plasma Glucose, % of before (Goto-Kakizaki (GK) rats; after 6 hours): (55.4 +/− 12.4) %
- Plasma Glucose (Goto-Kakizaki (GK) rats; before (0 hour)): 163.7 ± 5.8 mg/dL
- Plasma Glucose, % of before (Goto-Kakizaki (GK) rats; before (0 hour)): (100.0 +/− 0.0) %

— US7563774B2, “Combination of FBPase inhibitors and antidiabetic agents useful for the treatment of diabetes” (Metabasis Therapeutics, Inc., priority 2000, dated 2009)
